In ChEMBL document CHEMBL4229423 (Bioorg Med Chem, 2018):

Key:
[1] = test system: Platelet; assay: Antiplatelet activity in rabbit platelet rich plasma assessed as inhibition of ADP-induced platelet aggregation at 0.1 mM preincubated for 5 mins followed by ADP addition measured up to 5 mins; type: functional; conditions: Oryctolagus cuniculus
[2] = biological target: T1, Sodium/glucose cotransporter 2 (Homo sapiens, UniProt P31639); assay: Inhibition of SGLT2 (unknown origin)
T1 sequence (P31639 whole entry): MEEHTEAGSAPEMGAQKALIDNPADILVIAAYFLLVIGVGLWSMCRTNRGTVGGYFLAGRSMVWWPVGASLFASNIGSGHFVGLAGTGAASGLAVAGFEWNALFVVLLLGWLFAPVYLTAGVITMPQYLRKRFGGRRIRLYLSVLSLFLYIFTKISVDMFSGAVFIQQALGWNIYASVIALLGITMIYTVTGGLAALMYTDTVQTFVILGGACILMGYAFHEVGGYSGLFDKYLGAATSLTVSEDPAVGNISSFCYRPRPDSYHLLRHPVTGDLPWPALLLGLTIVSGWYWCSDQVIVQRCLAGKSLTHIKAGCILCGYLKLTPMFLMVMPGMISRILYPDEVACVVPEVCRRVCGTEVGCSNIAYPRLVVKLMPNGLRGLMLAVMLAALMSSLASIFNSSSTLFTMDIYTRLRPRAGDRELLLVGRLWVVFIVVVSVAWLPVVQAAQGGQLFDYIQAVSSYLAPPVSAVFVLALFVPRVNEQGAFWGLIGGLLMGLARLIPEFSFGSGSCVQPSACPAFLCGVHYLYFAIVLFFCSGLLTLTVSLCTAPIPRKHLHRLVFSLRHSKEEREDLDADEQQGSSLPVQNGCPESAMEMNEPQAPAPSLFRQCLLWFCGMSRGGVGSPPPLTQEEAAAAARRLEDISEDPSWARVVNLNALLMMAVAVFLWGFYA

[3] = test system: Mus musculus; assay: Antidiabetic activity in ICR mouse assessed as increase in urinary glucose excretion by measuring urine glucose levels at 20 mg/kg, po administered 30 mins prior to glucose challenge measured after 15 mins; type: functional
[4] = test system: Mus musculus; assay: Antidiabetic activity in ICR mouse assessed as increase in urinary glucose excretion by measuring urine glucose levels at 20 mg/kg, po administered 30 mins prior to glucose challenge measured after 60 mins; type: functional
[5] = test system: Platelet; assay: Antiplatelet activity in rabbit platelet rich plasma assessed as inhibition of ADP-induced platelet aggregation at 0.1 mM preincubated for 5 mins followed by ADP addition measured up to 5 mins in presence of NO scavenger carboxy-PTIO; type: functional; conditions: Oryctolagus cuniculus
[6] = test system: Mus musculus; assay: Antidiabetic activity in ICR mouse assessed as increase in urinary glucose excretion by measuring urine glucose levels at 20 mg/kg, po administered 30 mins prior to glucose challenge measured after 30 mins; type: functional
[7] = test system: Mus musculus; assay: Antidiabetic activity in ICR mouse assessed as increase in urinary glucose excretion by measuring urine glucose levels at 20 mg/kg, po administered 30 mins prior to glucose challenge measured after 120 mins; type: functional
[8] = test system: Mus musculus; assay: Antihyperglycemic activity in fasting ICR mouse assessed as decrease in plasma glucose AUC (0 to 120 mins) at 20 mg/kg, po administered 30 mins prior to glucose challenge measured after 120 mins by OGTT relative to control; type: functional; design: scale not given: the % may be the effect or the level left

| IC50 [2] [nM] | Compound | inhibition at 100 µM [1] [%] | other results |
| --- | --- | --- | --- |
| 4 | CCc1ccc(Cc2ccc3c(c2)[C@]2(OC3)O[C@H](CO)[C@@H](O)[C@H](O)[C@H]2O)cc1 [TOFOGLIFLOZIN ANHYDROUS] |  |  |
| 8.4 | OC[C@H]1O[C@@H](c2ccc(F)c(Cc3cc4ccccc4s3)c2)[C@H](O)[C@@H](O)[C@@H]1O [IPRAGLIFLOZIN] |  |  |
| 2.3 | CCOc1ccc(Cc2cc([C@@H]3S[C@H](CO)[C@@H](O)[C@H](O)[C@H]3O)c(OC)cc2C)cc1 [LUSEOGLIFLOZIN] |  |  |

More lines, now with the values behind:

| Compound | IC50 [2] [nM] | inhibition at 100 µM [1] [%] | other results |
| --- | --- | --- | --- |
| O=[N+]([O-])OCCOc1ccc(Cc2cc([C@@H]3O[C@H](CO)[C@@H](O)[C@H](O)[C@H]3O)ccc2Cl)cc1 |  | 11.6 |  |
| O=[N+]([O-])OCCCCOc1ccc(Cc2cc([C@@H]3O[C@H](CO)[C@@H](O)[C@H](O)[C@H]3O)ccc2Cl)cc1 |  | 14.1 |  |
| O=[N+]([O-])OCCCOc1ccc(Cc2cc([C@@H]3O[C@H](CO)[C@@H](O)[C@H](O)[C@H]3O)ccc2Cl)cc1 |  | 14.4 | Activity [3]: 500 mg/dL; Activity [4]: 1000 mg/dL; inhibition at 100 µM [5]: 3.64%; Activity [6]: 2000 mg/dL; Activity [7]: 500 mg/dL; Activity [8]: 26.3% |
